Data as given in US7491827B2, “Aryl sulfonamides useful as inhibitors of chemokine receptor activity” (Millennium Pharmaceuticals, Inc., priority 2003, dated 2009).

target: T1, cloned human CCR8 receptor stably expressed in L1.2 cells (Homo sapiens, UniProt P51685); assay: whole cell binding screen: inhibition of biotinylated human I309 binding to CCR8 (FMAT 8100 HTS); settings: Ki of compounds to inhibit I-309 binding to CCR8, L1.2/hCCR8 cells, biotinylated human I-309, 10 point concentration response starting at 10 μM
T1 construct: expressed in transfected cells
Outline: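 Ten-point dilutions, top 10 μM final, were tested for displacing biotin-I309 from hCCR8-transfected L1.2 cells in HEPES-buffered HBSS with BSA and sodium azide, mixing 0.5 h before FMAT 8100 detection. Signals converted to percent inhibition against untreated wells and a 100 nM excess unlabeled I309 control.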

T1 sequence (P51685 whole entry): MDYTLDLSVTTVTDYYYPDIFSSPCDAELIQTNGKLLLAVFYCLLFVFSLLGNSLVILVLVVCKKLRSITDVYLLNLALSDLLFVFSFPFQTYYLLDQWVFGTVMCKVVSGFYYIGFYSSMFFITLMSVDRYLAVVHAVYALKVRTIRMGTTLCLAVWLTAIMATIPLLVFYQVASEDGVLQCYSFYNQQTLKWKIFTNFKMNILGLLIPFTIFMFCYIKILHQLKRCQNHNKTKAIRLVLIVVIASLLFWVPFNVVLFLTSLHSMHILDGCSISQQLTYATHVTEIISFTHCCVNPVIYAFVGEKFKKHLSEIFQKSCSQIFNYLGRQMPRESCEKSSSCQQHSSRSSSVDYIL

How did the Ki turn out when `CCOC(=O)N1CCC(NS(=O)(=O)c2ccc(NC(=O)c3ccccc3)c3ccccc23)CC1` [Compound A-34, 4-(4-Benzoylamino-naphthalene-1-sulfonylamino)-piperidine-1-carboxylic acid ethyl ester] was run?
Its Ki is under 30000 nM.

With `CCC(=O)N1CCC(NS(=O)(=O)c2ccc(NC(=O)c3ccccc3C)c3ccccc23)CC1` [Compound C-50, 2-Methyl-N-[4-(1-propionyl-piperidin-4-ylsulfamoyl)-naphthalen-1-yl]-benzamide] as the compound, how does the Ki read?
Its Ki is under 500 nM.

Which Ki does the source give for `CCNC(=O)N1CCC(NS(=O)(=O)c2ccc(NC(=O)c3ccccc3C)c3ccccc23)CC1` [Compound C-34, 4-[4-(2-Methyl-benzoylamino)-naphthalene-1-sulfonylamino]-piperidine-1-carboxylic acid ethylamide] here?
The Ki was under 500 nM.

How did the Ki turn out when `Cc1ccccc1C(=O)Nc1ccc(S(=O)(=O)NC2CCN(C(=O)C3CCCC3)CC2)c2ccccc12` [Compound C-38, N-[4-(1-Cyclopentanecarbonyl-piperidin-4-ylsulfamoyl)-naphthalen-1-yl]-2-methyl-benzamide] was run?
The Ki was under 500 nM.

How did the Ki turn out when `CC(=O)N1CCC(NS(=O)(=O)c2ccc(NC(=O)c3ccccc3C)c3ccccc23)CC1` [Compound C-49, N-[4-(1-Acetyl-piperidin-4-ylsulfamoyl)-naphthalen-1-yl]-2-methyl-benzamide] was run?
Its Ki is under 500 nM.

`CCOC(=O)N1CCC(NS(=O)(=O)c2ccc(NC(=O)c3ccccc3C)c3ccccc23)CC1` [Compound A-40, 4-[4-(2-Methyl-benzoylamino)-naphthalene-1-sulfonylamino]-piperidine-1-carboxylic acid ethyl ester] was tested. Which Ki did it give?
The Ki was under 500 nM.

same assay, conditions: L1.2/hCCR8 cells, biotinylated human I-309, 10 point concentration response starting at 10 μM; read-out: Ki of compounds to inhibit I-309 binding to CCR8

For `CCOC(=O)N1CCC(NS(=O)(=O)c2cccc3c(C(=O)Nc4cccc(C)c4)cccc23)CC1` [Compound H-41, 4-(5-m-Tolylcarbamoyl-naphthalene-1-sulfonylamino)-piperidine-1-carboxylic acid ethyl ester], which Ki is on record?
The Ki was under 30000 nM.

With `CCOC(=O)N1CCC(NS(=O)(=O)c2cccc3c(NC(=O)C4CCCCC4)c(C)ccc23)CC1` [Compound H-22, 4-[5-(Cyclohexanecarbonyl-amino)-6-methyl-naphthalene-1-sulfonylamino]-piperidine-1-carboxylic acid ethyl ester] as the compound, how does the Ki read?
The Ki was under 1000 nM.

Which Ki does the source give for `Cc1ccccc1C(=O)Nc1ccc(S(=O)(=O)N[C@@H]2CCN(C(=O)CN3CCOCC3)C[C@@H]2C)c2ccccc12` (racemic) [Compound C-145, (±)-2-Methyl-N-{4-[3-cis-methyl-1-(2-morpholin-4-yl-acetyl)-piperidin-4-ylsulfamoyl]-naphthalen-1-yl}-benzamide] here?
Its Ki is under 1000 nM.

With `COc1ccc(NS(=O)(=O)c2ccc(NC(=O)Nc3ccccc3)c3ccccc23)cc1` [Compound B-10, 4-(3-Phenyl-ureido)-naphthalene-1-sulfonic acid (4-methoxy-phenyl)-amide] as the compound, how does the Ki read?
The Ki was under 30000 nM.

For `COc1ccc(NS(=O)(=O)c2cc3c(c(NC(=O)c4ccccc4)c2)CCCC3)cc1` [Compound H-55, N-[3-(4-Methoxy-phenylsulfamoyl)-5,6,7,8-tetrahydro-naphthalen-1-yl]-benzamide], which Ki is on record?
The Ki was under 30000 nM.

Which Ki does the source give for `CCCC(=O)N1CCC(NS(=O)(=O)c2cccc3c(C(=O)Nc4cccc(C)c4C)cccc23)CC1` [Compound H-37, 5-(1-Butyryl-piperidin-4-ylsulfamoyl)-naphthalene-1-carboxylic acid (2,3-dimethyl-phenyl)-amide] here?
The Ki was under 500 nM.

How did the Ki turn out when `CC[C@@H]1CN(C(=O)[C@@H]2CCCN2)CC[C@H]1NS(=O)(=O)c1ccc(NC(=O)c2ccccc2C)c2ccccc12` [Compound J-30, (3R, 4R)-N-{4-[3-Ethyl-1-(pyrrolidine-2-(S)-carbonyl)-piperidin-4-ylsulfamoyl]-naphthalen-1-yl}-2-methyl-benzamide] was run?
The Ki was under 500 nM.

`Cc1ccccc1C(=O)Nc1ccc(S(=O)(=O)NC2CCNCC2)c2ccccc12` [Compound C-36, 2-Methyl-N-[4-(piperidin-4-ylsulfamoyl)-naphthalen-1-yl]-benzamide] was tested. Which Ki did it give?
Its Ki is under 500 nM.

With `Cc1ccccc1C(=O)Nc1ccc(S(=O)(=O)NC2[C@@H](C)CNC[C@@H]2C)c2ccccc12` (racemic) [Compound C-64, (±)-(cistrans)-N-[4-(3,5-Dimethyl-piperidin-4-ylsulfamoyl)-naphthalen-1-yl]-2-methyl-benzamide] as the compound, how does the Ki read?
The Ki was under 500 nM.

How did the Ki turn out when `CN1CCCC(C(=O)Nc2ccc(S(=O)(=O)NC3CCN(C(=O)OC(C)(C)C)CC3)c3ccccc23)C1` (centres unmarked) [Compound B-23] was run?
The Ki was under 30000 nM.

How did the Ki turn out when `CCOC(=O)[C@H]1CN(C(=O)OCC)CC[C@@H]1NS(=O)(=O)c1ccc(NC(=O)c2ccccc2C)c2ccccc12` (racemic) [Compound C-79, (±)-(trans)-4-[4-(2-Methyl-benzoylamino)-naphthalene-1-sulfonylamino]-piperidine-1,3-dicarboxylic acid diethyl ester] was run?
The Ki was under 30000 nM.

Which Ki does the source give for `O=C(NC1CCOCC1)c1ccc(S(=O)(=O)NC2CCNCC2)c2ccccc12` [Compound F-18, 4-(Piperidin-4-ylsulfamoyl)-naphthalene-1-carboxylic acid (tetrahydro-pyran-4-yl)-amide] here?
The Ki was under 30000 nM.

For `CCOC(=O)N1CC[C@H](NS(=O)(=O)c2ccc(NC(=O)c3cccnc3C)c3ccccc23)[C@@H](C)C1` (racemic) [Compound D-9, (±)-(trans)-3-Methyl-4-{4-[(2-methyl-pyridine-3-carbonyl)-amino]-naphthalene-1-sulfonylamino}-piperidine-1-carboxylic acid ethyl ester], which Ki is on record?
Its Ki is under 500 nM.

`CN(C)CCNS(=O)(=O)c1ccc(NC(=O)c2ccccc2)c2ccccc12` [Compound A-9, N-[4-(2-Dimethylamino-ethylsulfamoyl)-naphthalen-1-yl]-benzamide] was tested. Which Ki did it give?
The Ki was under 30000 nM.

For `COc1ccc(NS(=O)(=O)c2ccc(NC(=O)c3ccccc3)c3c2CCCC3)cc1` [Compound E-3, N-[4-(4-Methoxy-phenylsulfamoyl)-5,6,7,8-tetrahydro-naphthalen-1-yl]-benzamide], which Ki is on record?
Its Ki is under 500 nM.

For `Cc1ccccc1C(=O)Nc1ccc(S(=O)(=O)NC2CCNC2)c2c1CCCC2` (racemic) [Compound E-29, (±)-2-Methyl-N-[4-(pyrrolidin-3-ylsulfamoyl)-5,6,7,8-tetrahydro-naphthalen-1-yl]-benzamide], which Ki is on record?
The Ki was under 500 nM.

`CCCC(=O)N1CCC(C)(NS(=O)(=O)c2ccc(NC(=O)c3ccccc3C)c3ccccc23)CC1` [Compound C-27, N-[4-(1-Butyryl-4-methyl-piperidin-4-ylsulfamoyl)-naphthalen-1-yl]-2-methyl-benzamide] was tested. Which Ki did it give?
Its Ki is under 500 nM.

`O=C(Nc1cccc2c(S(=O)(=O)Nc3ccc(F)cc3)cccc12)c1ccccc1` [Compound H-4, N-[5-(4-Fluoro-phenylsulfamoyl)-naphthalen-1-yl]-benzamide] was tested. Which Ki did it give?
Its Ki is under 30000 nM.

How did the Ki turn out when `Cc1ccccc1C(=O)NCc1ccc(S(=O)(=O)NC2CCCCC2)c2ccccc12` [Compound G-5, N-(4-Cyclohexylsulfamoyl-naphthalen-1-ylmethyl)-2-methyl-benzamide] was run?
The Ki was under 1000 nM.

How did the Ki turn out when `CCOC(=O)N1CCC(NS(=O)(=O)c2ccc(CNCc3ncc[nH]3)c3ccccc23)CC1` [Compound G-9, 4-(4-{[(lH-Imidazol-2-ylmethyl)-amino]-methyl}-naphthalene-1-sulfonylamino)-piperidine-1-carboxylic acid ethyl ester] was run?
The Ki was under 30000 nM.

For `CCOC(=O)N1CCC(NS(=O)(=O)c2ccc(NC(=O)c3ccccc3C)c3c2CCC3)C1` (racemic) [Compound H-72, (±)-3-[7-(2-Methyl-benzoylamino)-indane-4-sulfonylamino]-pyrrolidine-1-carboxylic acid ethyl eter], which Ki is on record?
The Ki was under 500 nM.

How did the Ki turn out when `Cc1ccccc1C(=O)Nc1ccc(S(=O)(=O)N[C@H]2CCN(C(=O)OC(C)C)C[C@H]2C)c2ccccc12` (racemic) [Compound C-13, (±)-cis-3-Methyl-4-[4-(2-methyl-benzoylamino)-naphthalene-1-sulfonylamino]-piperidine-1-carboxylic acid isopropyl ester] was run?
The Ki was under 500 nM.

`Cc1ccccc1C(=O)Nc1ccc(S(=O)(=O)NC2[C@@H](C)CNC[C@@H]2C)c2ccccc12` [Compound J-46] was tested. Which Ki did it give?
The Ki was under 500 nM.

With `Cc1ccccc1NC(=O)c1ccc(S(=O)(=O)NC2CCNCC2)c2ccccc12` [Compound F-5, 4-(Piperidin-4-ylsulfamoyl)-naphthalene-1-carboxylic acid o-tolylamide] as the compound, how does the Ki read?
Its Ki is under 30000 nM.

With `Cc1ccccc1C(=O)Nc1ccc(S(=O)(=O)N[C@@H]2[C@H](C)CN(C(=O)N3CCCCC3)C[C@@H]2C)c2ccccc12` [Compound C-72, (±)-(cis,cis)-N-{4-[3,5-Dimethyl-1-(piperidine-1-carbonyl)-piperidin-4-ylsulfamoyl]-naphthalen-1-yl}-2-methyl-benzamide] as the compound, how does the Ki read?
The Ki was under 1000 nM.

`CCOC(=O)N1CCC(NS(=O)(=O)c2cccc3c(C(=O)Nc4cccc(C)c4C)cccc23)CC1` [Compound H-36, 4-[5-(2,3-Dimethyl-phenylcarbamoyl)-naphthalene-1-sulfonylamno]-piperidine-1-carboxylic acid ethyl ester] was tested. Which Ki did it give?
Its Ki is under 500 nM.

With `CCCC(=O)N1CCC(NS(=O)(=O)c2ccc(NC(=O)C3CCN(C)CC3)c3ccccc23)CC1` [Compound D-24, 1-Methyl-piperidine-4-carboxylic acid [4-(1-butyryl-piperidin-4-ylsulfamoyl)-naphthalen-1-yl]-amide] as the compound, how does the Ki read?
The Ki was under 30000 nM.

`CC(C)c1ccc(NS(=O)(=O)c2ccc3cccc(NC(=O)c4ccccc4)c3c2)cc1` [Compound H-50, N-[7-(4-Isopropyl-phenylsuffamoyl)-naphthalen-1-yl]-benzamide] was tested. Which Ki did it give?
The Ki was under 30000 nM.

With `Cc1cccc(NC(=O)c2cccc3c(S(=O)(=O)NC4CCN(C(=O)N(C)C)CC4)cccc23)c1C` [Compound H-38, 4-[5-(2,3-Dimethyl-phenylcarbamoyl)-naphthalene-1-sulfonylamino]-piperidine-1-carboxylic acid dimethylamide] as the compound, how does the Ki read?
Its Ki is under 500 nM.
